Test results reported in US5464818A (priority 1993, dated 1995).
Where two headings read alike, the source gives them in different places. *1 amine or outer side, *2 acyl side, *3 side chain or, on linkers, in order; H or OH if unused. Where a SMILES comes first, the peptide text is derived from it. [ ]: non-standard residue; d: D form. The star is where a group is joined. Sta = CC(C)C[C@H](N)[C@@H](O)CC(=O)O; AMC = Cc1cc(=O)oc2cc(N*)ccc12; Suc = O=C(CCC(=O)[*:2])[*:1]; Isovaleryl = CC(C)CC(=O)*

How the values were obtained:
[1] = system: Clostridium perfringens FERM BP-4584 (7544S) cell growth-stimulating protein having proteinase activity (MW about 420,000); assay type: biochemical
[2] = system: Clostridium perfringens FERM BP-4584 (7544S) cell growth-stimulating protein having proteinase activity (MW about 420,000); assay type: biochemical; remark: listed apart in the source
[3] = inhibitor conc. 0.01 mM, substrate Suc-Ala-Ala-Pro-Phe-MCA
[4] = inhibitor conc. 1.0 mM, substrate Suc-Ala-Ala-Pro-Phe-MCA

With CC(C)C[C@H](NC(=O)N[C@H](C(=O)N[C@@H](CCC(N)=O)C(=O)N[C@@H](C)C=O)[C@@H]1CCNC(=N)N1)C(=O)O [Elastatinal] the Residual activity [1, 3] was 98%.
O=C(O)CN(CCN(CC(=O)O)CC(=O)O)CC(=O)O [Ethylenediamine tetraacetic acid] gave a Residual activity [1, 4] of 34%.
With O=C(O)CI [Iodoacetic acid] the Residual activity ([1]; inhibitor conc. 0.1 mM, substrate Suc-Ala-Ala-Pro-Phe-MCA) was 100%.
In the case of CC(C)CC(=O)N[C@H](C(=O)N[C@H](C(=O)N[C@@H](CC(C)C)[C@@H](O)CC(=O)N[C@@H](C)C(=O)N[C@@H](CC(C)C)[C@@H](O)CC(=O)O)C(C)C)C(C)C [Pepstatin A] (Isovaleryl-VV[Sta]A[Sta]-OH), the Residual activity [1, 3] is reported as 103%.
Cc1cc(=O)oc2cc(NC(=O)[C@H](Cc3ccccc3)NC(=O)[C@@H]3CCCN3C(=O)[C@H](C)NC(=O)[C@H](C)NC(=O)CCC(=O)O)ccc12 [Suc--Ala--Ala--Pro--Phe--MCA, succinyl-alanyl-alanyl-prolyl-phenylalanine-4-methyl-coumaryl-7-amide] (Suc-AAPF-{AMC}) showed a Km [2] of 4.2 mM and a Vmax ([2]; substrate Suc-Ala-Ala-Pro-Phe-MCA, optimum pH 6.2-7.0) of 230 μ mol/min/mg.
For c1cnc2c(c1)ccc1cccnc12 [o-Phenanthroline], the Residual activity [1, 4] was 85%.
Work on Chymostatin yielded a Residual activity [1, 3] of 62%.
For Toluene sulfonylfluoride, the Residual activity [1] was 1%.
